Reference: publication PMC4229492 (International journal of toxicology, 2014)
Several values for one entry are separate records, joined by “and”; a condition that tells them apart may be missing. Equal entries are not always repeated.

Assays:
[1] = tested on: Salmonella typhimurium TA98; assay: Ames assay, strain TA98; type: cell-based; settings: for Mutagenic response (dose-related increase in revertant colonies): TA98, with and without metabolic activation; for Cytotoxicity to TA98: under any test condition; for Doses at which precipitate was seen on the plates: Ames plates
human whole blood = assay: In vitro methemoglobin assay; type: cell-based
[2] = tested on: human liver cancer cell lines (HepG2, Hep3B, Huh7, PLC5); assay: Cytotoxicity, panel of four human liver cancer cell lines; type: cell-based; settings: read-out: IC50 values, range over the panel of human liver cells
T. b. rhodesiense = settings: read-out: antitrypanosomal IC50; T. b. rhodesiense in vitro; cited from earlier work
L6 rat myoblasts = settings: read-out: IC50 against the L6 cell line; L6 rat myoblasts in vitro; cited from earlier work
[3] = cited from earlier work
[4] = tested on: first stage trypanosome infection; settings: i.p. 50 mg/kg/day for five days; cited from earlier work

Structure (SMILES) | Mutagenic response (dose-related increase in revertant colonies) [1] | Cytotoxicity to TA98 [1] | Methemoglobin level (human whole blood; 10 μM, 60 min, 37 °C) | Methemoglobin level (human whole blood; 50 μM, 60 min, 37 °C) | Doses at which precipitate was seen on the plates [1] | Doses cytotoxic to the TA98 strain ([1]; in the absence of metabolic activation) | Doses cytotoxic to the TA98 strain ([1]; in the presence of metabolic activation) | IC50 [2] | IC50 (T. b. rhodesiense) | IC50 (L6 rat myoblasts) | OSU-36 plasma concentration ([3]; intravenous OSU-36.HCl 2 mg/kg, measured at 60 min, analyte OSU-36) | Outcome in murine first stage trypanosomiasis model [4] | Methemoglobin level (human whole blood; 5 mM, 10 min) | Methemoglobin level (human whole blood; 5 mM, 30 min) | Methemoglobin level (human whole blood; 5 mM, 60 min) | Deacetylation in vivo ([3]; preliminary pharmacokinetic studies in rats)
CC1=CC(C)(C)N(Cc2ccccc2)c2ccc(Cl)cc21 [JR-I-78, 1-benzyl-6-chloro-2,2,4-trimethyl-1,2-dihydroquinoline] | did not elicit a mutagenic response | not cytotoxic | 0.8% | 0.8% | – | – | – | – | – | – | – | – | – | – | – | –
CC1=CC(C)(C)N(Cc2ccccc2)c2ccc(O)cc21.Cl [OSU-36.HCl, 1-benzyl-1,2-dihydro-2,2,4-trimethylquinolin-6-ol hydrochloride] | did not elicit a mutagenic response | – | 2.1% | 9.3% | ≥ 500 μg/plate | ≥ 100 μg/plate | ≥ 500 μg/plate | 5.2 to 20 µM | 0.013 µM | 11 µM | approximately 150 ng/mL and ~ 0.53 μM | resulted in cures | – | – | – | –
O=N[O-].[Na+] [Sodium nitrite, reference compound] | – | – | – | – | – | – | – | – | – | – | – | – | 37.4% | 41.2% | 50.6% | –
COc1ccccc1CN1c2ccc(OC(C)=O)cc2C(C)=CC1(C)C [OSU-75, 1-(2-methoxybenzyl)-1,2-dihydro-2,2,4-trimethylquinolin-6-yl acetate] | did not elicit a mutagenic response | not cytotoxic | 1.2% | 3.8% | ≥ 500 μg/plate | – | – | – | – | – | – | resulted in cures | – | – | – | –
CC(=O)Oc1ccc2c(c1)C(C)=CC(C)(C)N2Cc1ccccc1 [OSU-40, 1-benzyl-1,2-dihydro-2,2,4-trimethylquinolin-6-yl acetate] | – | – | – | – | – | – | – | 8 to 36 µM | 0.012 µM | 24 µM | – | – | – | – | – | rapidly deacetylated
